This is an account of results in ChEMBL document CHEMBL6074635, “Replacement of the essential nitro group by electrophilic warheads towards nitro-free antimycobacterial benzothiazinones” (Eur J Med Chem, 2024).

Test [1] addresses T1, Decaprenylphosphoryl-beta-D-ribose oxidase (Mycobacterium tuberculosis (strain ATCC 25618 / H37Rv)) (UniProt P9WJF1).
T1 sequence (whole entry): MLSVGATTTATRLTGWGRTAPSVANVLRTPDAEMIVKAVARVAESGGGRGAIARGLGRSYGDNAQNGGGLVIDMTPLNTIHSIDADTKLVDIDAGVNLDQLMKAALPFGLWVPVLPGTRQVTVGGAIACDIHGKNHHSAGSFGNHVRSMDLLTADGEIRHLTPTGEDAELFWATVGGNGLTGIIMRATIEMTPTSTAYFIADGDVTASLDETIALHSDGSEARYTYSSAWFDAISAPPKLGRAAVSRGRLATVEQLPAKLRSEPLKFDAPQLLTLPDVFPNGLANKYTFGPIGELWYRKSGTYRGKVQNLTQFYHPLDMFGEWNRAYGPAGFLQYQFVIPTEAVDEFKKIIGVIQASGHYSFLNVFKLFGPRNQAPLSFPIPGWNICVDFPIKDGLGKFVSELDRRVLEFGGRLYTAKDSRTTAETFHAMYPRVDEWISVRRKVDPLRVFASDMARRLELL
Nature of the test: Covalent inhibition of recombinant Mycobacterium tuberculosis DprE1 extracted from Escherichia coli BL21(DE3) assessed as inactivation rate constant (Kinact) using FPR/GGPR as substrate incubated for 60 mins by resazurin dye based fluorescence plate reader analysis.

Test [2] addresses T1, Decaprenylphosphoryl-beta-D-ribose oxidase (Mycobacterium tuberculosis (strain ATCC 25618 / H37Rv)). Nature of the test: Covalent inhibition of recombinant Mycobacterium tuberculosis DprE1 extracted from Escherichia coli BL21(DE3) assessed as Kinact/Ki ratio using FPR/GGPR as substrate incubated for 60 mins by resazurin dye based fluorescence plate reader analysis. For orientation: Resazurin is reduced to fluorescent resorufin, in cell work by metabolically active cells.

Test [3] shares this target. The test is described as follows: Substrate activity at recombinant Mycobacterium tuberculosis DprE1 extracted from Escherichia coli BL21(DE3) assessed as fold change in Km incubated for 60 mins by resazurin dye based fluorescence plate reader analysis relative to FPR.
Test [4] shares this target. Nature of the test: Reversible inhibition of recombinant Mycobacterium tuberculosis DprE1 extracted from Escherichia coli BL21(DE3) using FPR/GGPR as substrate by measuring fold change incubated for 60 mins by resazurin dye based fluorescence plate reader analysis relative to (S)-2-Fluoro-N-(2-(2-methyl-1,4-dioxa-8-azaspiro[4.5]decan-8-yl)-4-oxo-6-(trifluoromethyl)-4H-benzo[e][1,3]thiazin-8-yl)acrylamide.

In the case of `C[C@H]1COC2(CCN(c3nc(=O)c4cc(C(F)(F)F)cc(NC(=O)C(C)(C)Br)c4s3)CC2)O1`, the Kinact in test [1] worked out at 0.067 min⁻¹. Further, in test [2], the Ratio turned out to be 2.13 M⁻¹ s⁻¹.

`CC(C)=CCC/C(C)=C/CC/C(C)=C/CC/C(C)=C/COP(=O)(O)OC1O[C@H](CO)[C@@H](O)[C@H]1O` (some centres undefined): in test [3], the fold change (FC) came to 22.

Turning to `C=CS(=O)(=O)Nc1cc(C(F)(F)F)cc2c(=O)nc(N3CCC4(CC3)OC[C@H](C)O4)sc12`, the fold change (FC) in test [4] is 8.
